Earlier results in US20140088058A1 (PARTHENOGEN SAGL, priority 2011, published 2014).
Each block holds one compound with its values, some of them ahead of it.

How the values were obtained:
[1] = test system: FSH and LH plasma concentration
[2] = test system: gonadotrophin surge, oocytes collected; conditions: 40 mg oral route since early days of FSH administration

SMILES: CC(=O)[C@H]1CC[C@H]2[C@@H]3CCC4=CC(=O)CC[C@]4(C)[C@H]3CC[C@]12C [progesterone]
effect on plasma FSH and LH concentration ([1]; 10 mg i.m. in mid- or late-follicular phase): acute increase
women with gonadotrophin surge within one day from first progesterone injection (LH surge; after mifepristone 1 mg per os, progesterone i.m. 2.5 mg bid day 1, 5 mg bid day 2): 5 out of 6

SMILES: NC(=O)c1ccc[n+]([C@@H]2O[C@H](COP(=O)([O-])OP(=O)(O)OC[C@H]3O[C@@H](n4cnc5c(N)ncnc54)[C@H](O)[C@@H]3O)[C@@H](O)[C@H]2O)c1 [NAD+]
effect following rat brain ischemia (infarct formation; given by injection): ineffective
reduction of infarct formation (infarct formation; nasal route, rat brain ischemia): 90%

solubility in dimethyl sulfoxide (DMSO) (DMSO): more than 20 mg/ml
solubility in ethanol (ethanol): more than 20 mg/ml
SMILES: CC#C[C@]1(O)CC[C@H]2[C@@H]3CCC4=CC(=O)CCC4=C3[C@@H](c3ccc(N(C)C)cc3)C[C@@]21C [mifepristone, 17β-hydroxyl-11β-(4-dimethyl-aminophenyl-1)-17α-(prop-1-ynyl)-estra-4,9-diene-3-one]
effect on FSH and LH plasma concentration ([1]; 10 or 100 mg per os): reduction
gonadotrophin surge [2]: did not have a gonadotrophin surge
circulating levels of FSH and LH (LH surge; 1 mg per os for 5 days, from dominant follicle 14-16 mm): remained flat
LH surge timing versus placebo (LH surge; 1 mg per os for 5 days, placebo surge within 1 to 3 days): delayed in all treated women
